In ChEMBL document CHEMBL1201862, “PubChem BioAssay data set” (2004):
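Values below derive from 48-hour exposures of cells grown in 96-well plates, with endpoints linearly interpolated between the two concentrations bracketing the appropriate inhibition level. Abbreviation: GI50, concentration required for 50% inhibition of growth.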 Active and inactive are the calls of the source. No stated cut-off is given here; in the data, active = GI50 up to about 1.1 µM and inactive = higher.

Columns and labels:
Assay in all cases: NCI tumour cell line growth inhibition, 48 h
T47D = test system: T47D
BT-549 = test system: BT-549
HCC 2998 = test system: HCC 2998
Hs-578T = test system: Hs-578T
NCI-H23 = test system: NCI-H23
KM12 = test system: KM12
SK-MEL-28 = test system: SK-MEL-28
SK-OV-3 = test system: SK-OV-3
PC-3 = test system: PC-3
SK-MEL-5 = test system: SK-MEL-5
M14 = test system: M14
SK-MEL-2 = test system: SK-MEL-2
DU-145 = test system: DU-145
MDA-MB-231 = test system: MDA-MB-231
NCI-H226 = test system: NCI-H226
SN12C = test system: SN12C
LOX IMVI = test system: LOX IMVI
CAKI-1 = test system: CAKI-1
SNB-75 = test system: SNB-75
NCI-H522 = test system: NCI-H522

Measured: GI50

COC(=O)[C@@]1(C)CCC[C@]2(C(=O)O)C3Cc4occc4[C@H](C)[C@@H]3CCC21 (stereo partly specified)
inactive: T47D 40.6 µM | BT-549 91.6 µM | HCC 2998 30.2 µM | Hs-578T 29.4 µM | NCI-H23 > 100 µM | KM12 49.3 µM | SK-MEL-28 > 100 µM | SK-OV-3 56.1 µM | PC-3 23.7 µM | SK-MEL-5 89.1 µM | M14 76.4 µM | SK-MEL-2 51.2 µM | DU-145 44.2 µM | MDA-MB-231 > 100 µM | NCI-H226 84.3 µM | SN12C 28.9 µM

O=Cc1ccc2[nH]c(=O)oc2c1
inactive: LOX IMVI > 100 µM | BT-549 > 100 µM | Hs-578T > 100 µM | NCI-H23 > 100 µM | KM12 > 100 µM | SK-MEL-28 > 100 µM | CAKI-1 > 100 µM | SK-OV-3 > 100 µM | PC-3 > 100 µM | M14 > 100 µM | SK-MEL-2 > 100 µM | DU-145 > 100 µM | MDA-MB-231 > 100 µM | NCI-H226 > 100 µM | SN12C > 100 µM

C/C(=N\NC(=S)N1CCN(C)CC1)c1nc2cccnc2[nH]1
inactive: SNB-75 > 100 µM | LOX IMVI > 100 µM | T47D 52.1 µM | BT-549 22.4 µM | HCC 2998 > 100 µM | Hs-578T > 100 µM | NCI-H23 > 100 µM | KM12 > 100 µM | SK-MEL-28 > 100 µM | CAKI-1 > 100 µM | SK-OV-3 > 100 µM | PC-3 > 100 µM | SK-MEL-5 > 100 µM | M14 > 100 µM | NCI-H522 > 100 µM | MDA-MB-231 > 100 µM | NCI-H226 > 100 µM | SN12C > 100 µM

COc1ccc(-c2c(N)n(-c3cccc(C(=O)O)c3)c(=O)c3cc([N+](=O)[O-])ccc23)cc1
inactive: SNB-75 > 100 µM | LOX IMVI > 100 µM | T47D > 100 µM | BT-549 > 100 µM | HCC 2998 > 100 µM | Hs-578T > 100 µM | NCI-H23 > 100 µM | KM12 > 100 µM | SK-MEL-28 > 100 µM | CAKI-1 > 100 µM | SK-OV-3 > 100 µM | PC-3 > 100 µM | SK-MEL-5 > 100 µM | M14 > 100 µM | SK-MEL-2 > 100 µM | DU-145 > 100 µM | NCI-H522 > 100 µM | NCI-H226 > 100 µM

Cc1cc(-c2cscn2)c(O)c([N+](=O)[O-])c1
inactive: LOX IMVI 29.4 µM | BT-549 77.6 µM | HCC 2998 81.3 µM | Hs-578T 90.8 µM | NCI-H23 58.3 µM | CAKI-1 43 µM | SK-OV-3 16.1 µM | PC-3 41.4 µM | SK-MEL-5 31 µM | M14 90.4 µM | SK-MEL-2 85.1 µM | SN12C 45 µM

O=C(O)CNn1c(SCC(=O)O)nnc(/C=C/c2c(O)ccc3ccccc23)c1=O
inactive: LOX IMVI 7.5 µM | T47D 19.5 µM | BT-549 15 µM | HCC 2998 > 100 µM | Hs-578T 12.8 µM | NCI-H23 17.1 µM | KM12 31.6 µM | SK-MEL-28 34.3 µM | CAKI-1 29.5 µM | SK-OV-3 5.53 µM | PC-3 77.3 µM | SK-MEL-5 18.7 µM | M14 17.1 µM | SK-MEL-2 61.8 µM | DU-145 3.16 µM | NCI-H522 29.8 µM | SN12C 11.2 µM

CC(C)(C)/N=C1\C(=O)C2(C)CCC1C2(C)C (stereo unspecified)
inactive: LOX IMVI > 100 µM | T47D > 100 µM | BT-549 > 100 µM | HCC 2998 > 100 µM | NCI-H23 > 100 µM | KM12 > 100 µM | SK-MEL-28 > 100 µM | CAKI-1 > 100 µM | SK-OV-3 > 100 µM | PC-3 > 100 µM | SK-MEL-5 > 100 µM | M14 > 100 µM | SK-MEL-2 > 100 µM | DU-145 > 100 µM | MDA-MB-231 > 100 µM | NCI-H226 > 100 µM

Cc1ccccc1Nc1nc2c(s1)C(=O)c1ccccc1C2=O
inactive: SNB-75 15.3 µM | LOX IMVI 2.26 µM | T47D 4.53 µM | BT-549 2.46 µM | HCC 2998 17.7 µM | NCI-H23 3.43 µM | KM12 9.38 µM | SK-MEL-28 9.86 µM | CAKI-1 16.5 µM | SK-OV-3 21.8 µM | PC-3 2.26 µM | SK-MEL-5 2.92 µM | M14 5.82 µM | SK-MEL-2 16.7 µM | DU-145 6.67 µM | NCI-H522 2.86 µM | MDA-MB-231 3.41 µM | NCI-H226 14.4 µM | SN12C 3.3 µM
